Laboratory results published in patent US6914045B2, “Glycopeptide antibiotics” (Wyeth Holdings Corporation, priority 2001, dated 2005).
Values after ≈ are worked out from the molar mass of the structure shown.

Legend:
Assay in all cases: in vitro antibacterial evaluation, MIC by broth dilution
Assay type in all cases: cell-based
Escherichia coli = conditions: 18 hours at 35° C.
Streptococcus sp. = conditions: broth dilution, 18 hours at 35° C.
Summary of the method: (§1)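 Following National Committee for Clinical Laboratory Standards recommendations (M7-A2), susceptibility was measured by dilution in Muller-Hinton II […]. Bacteria were seeded at 5×10^5 CFU/mL against compound concentrations from 64 down to 0.06 μg/mL.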

Enterococcus sp. = conditions: broth dilution, 18 hours at 35° C.
Summary of the method: as §1

Staphylococcus sp. = conditions: broth dilution, 18 hours at 35° C.
Summary of the method: as §1

- MIC Escherichia coli (ATCC 25922) (Escherichia coli): >64 µg/mL
- MIC Escherichia coli (GC 4559) (Escherichia coli): >64 µg/mL
- MIC Escherichia coli (GC 4560) (Escherichia coli): 1 µg/mL (≈ 0.677 µM)
- MIC Streptococcus agalactiae (GC 4564) (Streptococcus sp.): 0.12 µg/mL (≈ 0.0812 µM)
- MIC Streptococcus pneumoniae (ATCC 6301) (Streptococcus sp.): <0.06 µg/mL
- MIC Streptococcus pneumoniae (GC 1894) (Streptococcus sp.): <0.06 µg/mL
- MIC Streptococcus pneumoniae (GC 4565) (Streptococcus sp.): <0.06 µg/mL
- MIC Streptococcus pyogenes (GC 4563) (Streptococcus sp.): <0.06 µg/mL
- MIC Streptococcus pneumoniae (ATCC 6301) (Streptococcus sp.; inoculum 5×10^5 CFU/mL, strain ATCC 6301): <0.06 µg/mL
- MIC Streptococcus pneumoniae (GC 1894) (Streptococcus sp.; inoculum 5×10^5 CFU/mL, strain GC 1894): <0.06 µg/mL
- MIC Streptococcus pyogenes (GC 4563) (Streptococcus sp.; inoculum 5×10^5 CFU/mL, strain GC 4563): <0.06 µg/mL
- MIC Streptococcus agalactiae (GC 4564) (Streptococcus sp.; inoculum 5×10^5 CFU/mL, strain GC 4564): 0.12 µg/mL (≈ 0.0812 µM)
- MIC Streptococcus pneumoniae (GC 4565) (Streptococcus sp.; inoculum 5×10^5 CFU/mL, strain GC 4565): <0.06 µg/mL
- MIC Enterococcus avium (GC 4558) (Enterococcus sp.): 2 µg/mL (≈ 1.35 µM)
- MIC Enterococcus faecalis (ATCC 29212) (Enterococcus sp.): 4 µg/mL (≈ 2.71 µM)
- MIC Enterococcus faecalis (GC 2242) (Enterococcus sp.): 4 µg/mL (≈ 2.71 µM)
- MIC Enterococcus faecalis (GC 2691) (Enterococcus sp.): 2 µg/mL (≈ 1.35 µM)
- MIC Enterococcus faecalis (GC 3059) (Enterococcus sp.): 2 µg/mL (≈ 1.35 µM)
- MIC Enterococcus faecalis (GC 4552) (Enterococcus sp.): 4 µg/mL (≈ 2.71 µM)
- MIC Enterococcus faecalis (GC 4553) (Enterococcus sp.): 4 µg/mL (≈ 2.71 µM)
- MIC Enterococcus faecalis (GC 4554) (Enterococcus sp.): 4 µg/mL (≈ 2.71 µM)
- MIC Enterococcus faecalis (GC 6189) (Enterococcus sp.): 2 µg/mL (≈ 1.35 µM)
- MIC Enterococcus faecium (GC 2243) (Enterococcus sp.): 4 µg/mL (≈ 2.71 µM)
- MIC Enterococcus faecium (GC 4556) (Enterococcus sp.): 4 µg/mL (≈ 2.71 µM)
- MIC Enterococcus faecium (GC 4557) (Enterococcus sp.): 2 µg/mL (≈ 1.35 µM)
- MIC Enterococcus faecalis (ATCC 29212) (Enterococcus sp.; strain ATCC 29212): 4 µg/mL (≈ 2.71 µM)
- MIC Enterococcus faecium (GC 2243) (Enterococcus sp.; strain GC 2243): 4 µg/mL (≈ 2.71 µM)
- MIC Enterococcus faecalis (GC 4552) (Enterococcus sp.; strain GC 4552): 4 µg/mL (≈ 2.71 µM)
- MIC Enterococcus faecalis (GC 4553) (Enterococcus sp.; strain GC 4553): 4 µg/mL (≈ 2.71 µM)
- MIC Enterococcus faecalis (GC 4554) (Enterococcus sp.; strain GC 4554): 4 µg/mL (≈ 2.71 µM)
- MIC Enterococcus faecium (GC 4556) (Enterococcus sp.; strain GC 4556): 4 µg/mL (≈ 2.71 µM)
- MIC Enterococcus faecium (GC 4557) (Enterococcus sp.; strain GC 4557): 2 µg/mL (≈ 1.35 µM)
- MIC Enterococcus avium (GC 4558) (Enterococcus sp.; strain GC 4558): 2 µg/mL (≈ 1.35 µM)
- MIC Enterococcus faecalis (GC 6189) (Enterococcus sp.; strain GC 6189): 2 µg/mL (≈ 1.35 µM)
- MIC Enterococcus faecalis (GC 2242) (Enterococcus sp.; inoculum 5×10^5 CFU/mL, strain GC 2242): 4 µg/mL (≈ 2.71 µM)
- MIC Enterococcus faecalis (GC 2691) (Enterococcus sp.; inoculum 5×10^5 CFU/mL, strain GC 2691): 2 µg/mL (≈ 1.35 µM)
- MIC Enterococcus faecalis (GC 3059) (Enterococcus sp.; inoculum 5×10^5 CFU/mL, strain GC 3059): 2 µg/mL (≈ 1.35 µM)
- MIC Coagulase Negative Staphylococcus (GC 4547) (Staphylococcus sp.): 2 µg/mL (≈ 1.35 µM)
- MIC Coagulase Negative Staphylococcus (GC 4548) (Staphylococcus sp.): 0.5 µg/mL (≈ 0.338 µM)
- MIC Coagulase Negative Staphylococcus (GC 4549) (Staphylococcus sp.): 0.5 µg/mL (≈ 0.338 µM)
- MIC Coagulase Negative Staphylococcus (GC 4551) (Staphylococcus sp.): 2 µg/mL (≈ 1.35 µM)
- MIC Coagulase Negative Staphylococcus (GC 6257) (Staphylococcus sp.): 1 µg/mL (≈ 0.677 µM)
- MIC Staphylococcus aureus (ATCC 29213) (Staphylococcus sp.): 2 µg/mL (≈ 1.35 µM)
- MIC Staphylococcus aureus (GC 1131) (Staphylococcus sp.): 2 µg/mL (≈ 1.35 µM)
- MIC Staphylococcus aureus (GC 3051) (Staphylococcus sp.): 2 µg/mL (≈ 1.35 µM)
- MIC Staphylococcus aureus (GC 3053) (Staphylococcus sp.): 2 µg/mL (≈ 1.35 µM)
- MIC Staphylococcus aureus (GC 4541) (Staphylococcus sp.): 2 µg/mL (≈ 1.35 µM)
- MIC Staphylococcus aureus (GC 4542) (Staphylococcus sp.): 4 µg/mL (≈ 2.71 µM)
- MIC Staphylococcus aureus (GC 4544) (Staphylococcus sp.): 2 µg/mL (≈ 1.35 µM)
- MIC Staphylococcus aureus (GC 4545) (Staphylococcus sp.): 2 µg/mL (≈ 1.35 µM)
- MIC Staphylococcus aureus-SMITH (GC 4543) (Staphylococcus sp.): 2 µg/mL (≈ 1.35 µM)
- MIC Staphylococcus aureus (ATCC 29213) (Staphylococcus sp.; strain ATCC 29213): 2 µg/mL (≈ 1.35 µM)
- MIC Staphylococcus aureus (GC 1131) (Staphylococcus sp.; strain GC 1131): 2 µg/mL (≈ 1.35 µM)
- MIC Staphylococcus aureus (GC 3051) (Staphylococcus sp.; strain GC 3051): 2 µg/mL (≈ 1.35 µM)
- MIC Staphylococcus aureus (GC 3053) (Staphylococcus sp.; strain GC 3053): 2 µg/mL (≈ 1.35 µM)
- MIC Staphylococcus aureus (GC 4541) (Staphylococcus sp.; strain GC 4541): 2 µg/mL (≈ 1.35 µM)
- MIC Staphylococcus aureus (GC 4542) (Staphylococcus sp.; strain GC 4542): 4 µg/mL (≈ 2.71 µM)
- MIC Staphylococcus aureus-SMITH (GC 4543) (Staphylococcus sp.; strain GC 4543): 2 µg/mL (≈ 1.35 µM)
- MIC Staphylococcus aureus (GC 4544) (Staphylococcus sp.; strain GC 4544): 2 µg/mL (≈ 1.35 µM)
- MIC Staphylococcus aureus (GC 4545) (Staphylococcus sp.; strain GC 4545): 2 µg/mL (≈ 1.35 µM)
- MIC Coagulase Negative Staphylococcus (GC 4547) (Staphylococcus sp.; strain GC 4547): 2 µg/mL (≈ 1.35 µM)
- MIC Coagulase Negative Staphylococcus (GC 4548) (Staphylococcus sp.; strain GC 4548): 0.5 µg/mL (≈ 0.338 µM)
- MIC Coagulase Negative Staphylococcus (GC 4549) (Staphylococcus sp.; strain GC 4549): 0.5 µg/mL (≈ 0.338 µM)
- MIC Coagulase Negative Staphylococcus (GC 4551) (Staphylococcus sp.; strain GC 4551): 2 µg/mL (≈ 1.35 µM)
- MIC Coagulase Negative Staphylococcus (GC 6257) (Staphylococcus sp.; strain GC 6257): 1 µg/mL (≈ 0.677 µM)
SMILES: CC(c1ccccc1)C1NC(=O)CNC(=O)C(CO)NC(=O)C(C(O)C2CNC(=N)N2C2OC(CO)C(O)C(O)C2O)NC(=O)C(C(O)C2CNC(=N)N2)NC(=O)C(Cc2ccc(OC3OC(CO)C(OC4OC(COCc5ccc(Oc6ccccc6)cc5)C(O)C(O)C4O)C(O)C3O)cc2)NC1=O (stereo not shown) [Example 236]
- MIC Staphylococcus haemolyticus (GC 4546) (Staphylococcus sp.): 2 µg/mL (≈ 1.35 µM)
- MIC Staphylococcus haemolyticus (GC 4546) (Staphylococcus sp.; strain GC 4546): 2 µg/mL (≈ 1.35 µM)
